Source: patent publication US10934283B2, “COMT inhibiting methods and compositions” (LIEBER INSTITUTE FOR BRAIN DEVELOPMENT, priority 2015, dated 2021)
Structures can show the parent of a compound that is named as a salt.

These compounds were tested against T1, catechol-O-methyltransferase (COMT) (Homo sapiens, UniProt P21964) (assay: COMT inhibition assay (HTRF, production of SAH from SAM)). Details: table does not say MB-COMT or S-COMT.
T1 construct: M51A variant) was expressed in HEK 293F cells
T1 sequence (P21964 52-271 limits assumed): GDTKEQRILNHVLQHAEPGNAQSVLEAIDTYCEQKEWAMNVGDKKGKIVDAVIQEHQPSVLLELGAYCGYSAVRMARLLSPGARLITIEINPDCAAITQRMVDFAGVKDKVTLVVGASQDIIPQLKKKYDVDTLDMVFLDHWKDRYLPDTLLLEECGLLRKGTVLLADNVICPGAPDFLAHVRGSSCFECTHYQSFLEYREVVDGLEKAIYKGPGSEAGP
Assay type: biochemical
Description: The ability of compounds to inhibit the activity of catechol-O-methyltransferase (COMT) was determined by a homogenous time-resolved fluorescent (HTRF) assay (Lina et al, 2012; kit from CisBio, Codolet, France). This assay measures the production of S-adenosyl homocysteine (SAH) from the methyl donor S-adenosyl methionine. Recombinant human membrane bound COMT (MB-COMT; M51A variant) was expressed in HEK 293F cells using 293Fectin (Life Technologies, Gent, Belgium) and membranes prepared. The membranes were re-suspended in buffer (20 mM Tris/HCl pH 7; 10 mM glycerol; 2 mM MgCl2; 10 mM NaCl), aliquoted and stored at −80° C. Recombinant human soluble COMT(S-COMT), Val158 variant and a hexa-His tag on the N-terminus, was purified using Ni-NTA chromatography, the His tag removed and stored in buffer as above.
For the human MB-COMT assay, membranes (62 ng/well) were incubated with SAM (20 μM final, CisBio) and dopamine (1.5 μM final; Sigma H8502, Diegem, Belgium) in the presence or absence of varying concentrations (typically 10 concentrations ranging from 10 ? M to 0.1 nM) of compound for 40 min at 37° C. in 384-well microtiter plates (10 ? l per well final volume). The reaction was terminated by the addition of acylation buffer and the amount of SAH produced determined according to manufacturer's instructions. Specific inhibition as that inhibited by a high concentration of tolcapone and all experiments were validated using a control curve to tolcapone.
The human S-COMT assay was performed as above except that 0.15 ng enzyme/well was incubated with SAM ([…]) and dopamine (100 μM final) for 15 min at 37° C. and SAH production determined.
HTRF readings were performed using a Perkin Elmer Envision and results expressed as concentration of SAH produced using a standard curve. Results were analyzed using non-linear regression to the 4-parameter logistic equation and pIC50 (−log 10 concentration of drug which inhibits enzyme activity/SAH production by 50%) determined.
With `O=c1cc2n(cc1O)CCN(Cc1ccc(OCc3ccccc3)cc1)C2` [Example 52, 2-[4-(benzyloxy)benzyl]-7-hydroxy-1,2,3,4-tetrahydro-8H-pyrido[1,2-a]pyrazin-8-one] the “Activity range (pIC50)” value was “+++ (three plus signs (+++) is associated with a pIC50 of above about 7)”.
For `O=c1cc2n(cc1O)CCN(Cc1cccc(OCc3ccccc3)c1)C2` [Example 53, 2-[3-(benzyloxy)benzyl]-7-hydroxy-1,2,3,4-tetrahydro-8H-pyrido[1,2-a]pyrazin-8-one], the “Activity range (pIC50)” value was “+++ (three plus signs (+++) is associated with a pIC50 of above about 7)”.
In the case of `O=c1cc2n(cc1O)CCN(Cc1ccc3nsnc3c1)C2` [Example 54, 2-(2,1,3-benzothiadiazol-5-ylmethyl)-7-hydroxy-1,2,3,4-tetrahydro-8H-pyrido[1,2-a]pyrazin-8-one], the “Activity range (pIC50)” value is reported as “++ (two plus signs (++) is associated with a pIC50 of from about 6 to 7)”.
For `O=c1cc2n(cc1O)CCN(Cc1ccccc1OCc1ccccc1)C2` [Example 55, 2-[2-(benzyloxy)benzyl]-7-hydroxy-1,2,3,4-tetrahydro-8H-pyrido[1,2-a]pyrazin-8-one], the “Activity range (pIC50)” value was “++ (two plus signs (++) is associated with a pIC50 of from about 6 to 7)”.
`Cc1ccc(-c2nc3sccn3c2CN2CCn3cc(O)c(=O)cc3C2)cc1` [Example 56, 7-hydroxy-2-{[6-(4-methylphenyl)imidazo[2,1-b][1,3]thiazol-5-yl]methyl}-1,2,3,4-tetrahydro-8H-pyrido[1,2-a]pyrazin-8-one] was tested, and the “Activity range (pIC50)” value was “++ (two plus signs (++) is associated with a pIC50 of from about 6 to 7)”.
`O=c1cc2n(cc1O)CCN(Cc1ccc(Cl)cc1Cl)C2` [Example 57, 7-hydroxy-2-[(2,4-dichlorophenyl)methyl]-1,2,3,4-tetrahydro-8H-pyrido[1,2-a]pyrazin-8-one] was tested, and the “Activity range (pIC50)” value was “+++ (three plus signs (+++) is associated with a pIC50 of above about 7)”.
`O=c1cc2n(cc1O)CCN(Cc1ccccc1Cl)C2` [Example 58, 2-[(2-chlorophenyl)methyl]-7-hydroxy-3,4-dihydro-1H-pyrido[1,2-a]pyrazin-8-one] was tested, and the “Activity range (pIC50)” value was “+++ (three plus signs (+++) is associated with a pIC50 of above about 7)”.
With `O=c1cc2n(cc1O)CCN(Cc1c(F)cccc1Cl)C2` [Example 59, 2-[(2-chloro-6-fluoro-phenyl)methyl]-7-hydroxy-3,4-dihydro-1H-pyrido[1,2-a]pyrazin-8-one] the “Activity range (pIC50)” value was “+++ (three plus signs (+++) is associated with a pIC50 of above about 7)”.
`O=c1cc2n(cc1O)CCN(Cc1c(Cl)cccc1Cl)C2` [Example 60, 2-[(2,6-dichlorophenyl)methyl]-7-hydroxy-3,4-dihydro-1H-pyrido[1,2-a]pyrazin-8-one] was tested, and the “Activity range (pIC50)” value was “+++ (three plus signs (+++) is associated with a pIC50 of above about 7)”.
In the case of `O=c1cc2n(cc1O)CCN(Cc1ccc(F)cc1Cl)C2` [Example 61], the “Activity range (pIC50)” value is reported as “+++ (three plus signs (+++) is associated with a pIC50 of above about 7)”.
`O=c1cc2n(cc1O)CCN(Cc1c(F)cccc1F)C2` [Example 62, 2-[(2,6-difluorophenyl)methyl]-7-hydroxy-3,4-dihydro-1H-pyrido[1,2-a]pyrazin-8-one] was tested, and the “Activity range (pIC50)” value was “+++ (three plus signs (+++) is associated with a pIC50 of above about 7)”.
`O=c1cc2n(cc1O)CCN(Cc1ccc(Br)cc1Cl)C2` [Example 63, 2-[(4-bromo-2-chloro-phenyl)methyl]-7-hydroxy-3,4-dihydro-1H-pyrido[1,2-a]pyrazin-8-one hydrochloride] was tested, and the “Activity range (pIC50)” value was “+++ (three plus signs (+++) is associated with a pIC50 of above about 7)”.
In the case of `O=c1cc2n(cc1O)CCN(Cc1ccc(C3CC3)cc1Cl)C2` [Example 64, 2-[(2-chloro-4-cyclopropyl-phenyl)methyl]-7-hydroxy-3,4-dihydro-1H-pyrido[1,2-a]pyrazin-8-one hydrochloride], the “Activity range (pIC50)” value is reported as “+++ (three plus signs (+++) is associated with a pIC50 of above about 7)”.
